{"source": "patent US20260183295A1", "about": "“METHODS AND COMPOSITIONS FOR TREATING CANCER” (Onconova Therapeutics, Inc., priority 2022, published 2026)", "key": {"[1]": {"test_system": "MDA-MB-231", "experiment": "Cell viability after 72 hours treatment", "assay_type": "cell-based", "conditions": "MDA-MB-231 (TNBC)", "procedure": "(§1) The effects on the different treatment conditions on BUB 1 levels and PARP cleavage were also assessed. For both MNA-MB-231 cells, Compound 1 alone or with HCQ or SBI decreased BUB1 levels and cleaved PARP with […] decreases in cell viability observed for all treatments except Compound 1+SBI in MMA-MB-231 cells. The effects of Compound 1 with or without autophagy inhibitors was less pronounced in HCC-1937 cells."}, "[2]": {"test_system": "HCC-1937", "experiment": "Cell viability after 72 hours treatment", "assay_type": "cell-based", "conditions": "HCC-1937 (TNBC)", "procedure": "as §1"}, "[3]": {"test_system": "MDA-MB-468", "experiment": "Cell viability after 72 hours treatment", "assay_type": "cell-based", "conditions": "MDA-MB-468 (TNBC)", "procedure": "as §1"}, "[4]": {"test_system": "pRb", "experiment": "Western blot after 2 h treatment, MDA-MB-231", "assay_type": "cell-based", "conditions": "5 μM, relative to DMSO control", "procedure": "(§2) Following treatment, a sample of each of the three treatments was analyzed by Western Blot for expression of phosphoprotein targets."}, "[5]": {"test_system": "pRb pSer807/811", "experiment": "Western blot after 2 h treatment, MDA-MB-231", "assay_type": "cell-based", "conditions": "5 μM, relative to DMSO control", "procedure": "as §2"}, "[6]": {"target": "T1, CDK4/cyclin D1 (Homo sapiens, UniProt P11802)", "experiment": "CDK4/cyclin D1 In Vitro IC50", "assay_type": "biochemical", "procedure": "Substrate was prepared in freshly prepared base reaction buffer. Any required cofactors were delivered to the substrate solution above. Indicated kinase was delivered into the substrate solution and the solution was gently mixed. Compounds were delivered in 100% DMSO into the kinase reaction mixture by Acoustic technology (Echo550; nanoliter range) and incubated for 20 minutes at room temperature. 33P-ATP was delivered into the reaction mixture to initiate the reaction. The kinase reaction was incubated for 2 hours at room temperature. Kinase activity was detected by P81 filter-binding method."}, "[7]": {"target": "T2, NanoLuc-CDK16 Fusion (Homo sapiens, UniProt Q00536)", "T2 construct": "expressed in transfected cells; host or cells: HEK293, transient", "T2 sequence (Q00536 whole entry, the tested form may be a part)": "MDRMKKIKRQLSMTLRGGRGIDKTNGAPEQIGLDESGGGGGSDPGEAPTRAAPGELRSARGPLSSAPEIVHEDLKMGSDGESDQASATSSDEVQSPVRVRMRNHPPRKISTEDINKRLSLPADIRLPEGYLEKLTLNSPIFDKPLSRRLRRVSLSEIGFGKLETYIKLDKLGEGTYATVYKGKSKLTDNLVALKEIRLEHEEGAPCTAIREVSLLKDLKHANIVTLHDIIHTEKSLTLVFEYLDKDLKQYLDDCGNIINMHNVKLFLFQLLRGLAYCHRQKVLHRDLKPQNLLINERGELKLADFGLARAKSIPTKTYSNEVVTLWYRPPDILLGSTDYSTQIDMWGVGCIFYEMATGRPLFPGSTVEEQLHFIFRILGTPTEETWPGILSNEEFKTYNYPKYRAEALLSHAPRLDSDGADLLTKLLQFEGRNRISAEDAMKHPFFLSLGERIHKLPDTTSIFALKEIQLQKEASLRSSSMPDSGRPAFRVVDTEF", "T2 sequence (Q8ND76 whole entry partner, the tested form may be a part)": "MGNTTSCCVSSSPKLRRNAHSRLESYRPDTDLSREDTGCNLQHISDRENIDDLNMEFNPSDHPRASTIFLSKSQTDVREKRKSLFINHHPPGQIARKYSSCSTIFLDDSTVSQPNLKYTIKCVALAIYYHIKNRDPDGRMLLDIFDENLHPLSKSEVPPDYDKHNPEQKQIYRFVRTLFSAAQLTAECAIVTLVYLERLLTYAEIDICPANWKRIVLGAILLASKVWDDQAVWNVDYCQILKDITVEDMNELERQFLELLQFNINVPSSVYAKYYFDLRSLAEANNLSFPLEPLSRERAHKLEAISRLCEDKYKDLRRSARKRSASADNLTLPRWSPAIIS", "experiment": "Cellular NanoBRET assay in HEK293 cells, raw data ratio", "assay_type": "cell-based", "procedure": "HEK293 cells were transfected with 1 ug of NanoLuc-CDK16 Fusion vector and 9 ug of either carrier DNA or cyclin Y DAN. The HEK293 cells transiently expressing the vectors were then seeded into the wells of 384-well plates. The cells were pre-treated with the NanoBRET Tracer K-10 (0.5 uM) and then treated with 3-fold serial dilutions (10 uM-0.5 nM), of Compound 1 or the reference compound APY-69 for 1 hour. The BRET signal was measured on an Envision2104 Multilabel Reader. IC50 value was calculated and IC50 curve was plotted using the GraphPad Prism 4 program based on a sigmoidal dose response equation."}, "[8]": {"test_system": "Caspase 3/7", "experiment": "Caspase 3/7 Glo assay with or without bafilomycin A1, MDA-MB-231 cells, 2 days", "assay_type": "cell-based", "conditions": "5 μM", "source_text": "FIGS. 34 and 35 show Caspase 3/7 activity as measured by the Caspase 3/7 Glo assay. […] The effect was enhanced by co-treatment with bafilomycin A1 cotreatment."}, "[9]": {"target": "T1, CDK4/cyclin D1", "experiment": "CDK4/cyclin D1 CETSA", "assay_type": "cell-based", "design": "endogenous in cells; host or cells: MDA-MB-231 (lysates and intact cells)", "procedure": "(§3) Following treatment, cell lysates were thermally treated in a thermal gradient profile across a temperature range. Following the thermal shift, cell lysates were spun by centrifuge to pellet aggregate protein and the supernatant withdrawn. The supernatant was then denatured in buffer and heated to denature, reduce, and alkylate the supernatant proteins. Following heating and cooling to room temperature, cold acetone was added to the supernatant samples and proteins precipitated.\n(§4) TNBC MDA-MB-231 cells were grown at 37° C. in 5% CO2 and suspended in warm media and split into 4 equal volumes. […] Cells were incubated and then pelleted. Following pelleting, the cells were washed, resuspended, and heated in a thermal gradient. Following heating, the samples were flash frozen and lysed in lysis buffer, agitated by vortex, and sonicated prior to centrifugation. The supernatant was collected and denaturation buffer added. Cold acetone was then added to the cell samples, and protein collected by centrifugation. […]\n(§5) The intact cell protein samples and lysate protein samples were then digested and labeled for mass spectrometry analysis according to the manufacturer's recommended protocols. Digested and labeled protein samples were analyzed by mass spectrometry proteomic analysis and the resulting protein targets were analyzed and plotted."}, "[10]": {"target": "T3, NUAK1 (Homo sapiens, UniProt O60285)", "T3 sequence (O60285 1-661)": "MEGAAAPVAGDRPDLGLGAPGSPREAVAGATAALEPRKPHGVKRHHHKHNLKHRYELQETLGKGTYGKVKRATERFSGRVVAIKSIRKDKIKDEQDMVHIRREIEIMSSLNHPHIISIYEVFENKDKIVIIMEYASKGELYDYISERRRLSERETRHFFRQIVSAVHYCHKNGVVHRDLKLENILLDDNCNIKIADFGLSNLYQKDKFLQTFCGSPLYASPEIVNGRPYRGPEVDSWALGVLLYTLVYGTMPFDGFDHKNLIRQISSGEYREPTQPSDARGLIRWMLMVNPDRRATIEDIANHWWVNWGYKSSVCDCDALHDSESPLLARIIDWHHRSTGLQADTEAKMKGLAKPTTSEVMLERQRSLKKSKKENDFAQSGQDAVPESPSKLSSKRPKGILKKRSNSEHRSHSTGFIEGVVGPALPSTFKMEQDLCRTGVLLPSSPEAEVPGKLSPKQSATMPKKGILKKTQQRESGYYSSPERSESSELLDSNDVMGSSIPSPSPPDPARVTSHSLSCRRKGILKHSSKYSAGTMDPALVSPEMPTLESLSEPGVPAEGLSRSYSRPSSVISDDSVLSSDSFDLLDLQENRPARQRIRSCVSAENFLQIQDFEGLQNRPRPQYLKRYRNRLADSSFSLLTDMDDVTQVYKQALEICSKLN", "experiment": "NUAK1 CETSA", "assay_type": "cell-based", "design": "endogenous in cells; host or cells: MDA-MB-231 (lysates and intact cells)", "procedure": "as §3, §4, §5"}, "[11]": {"test_system": "B2M", "experiment": "qPCR of mRNA expression, PyMT cells", "assay_type": "cell-based, mouse", "conditions": "24 and 48 hours"}}, "data": [{"smiles": "CN1CCN(c2ccc(Nc3ncc4cc(C#N)c(=O)n(C5CCCC5)c4n3)cc2)CC1", "note": "[Compound 1, 8-cyclopentyl-2-((4-(4-methylpiperazin-1-yl)phenyl)amino)-7-oxo-7,8-dihydropyrido[2,3-d]pyrimidine-6-carbonitrile]", "values": [{"measurement": "72 h-cell viability decrease", "setting": "[1]", "value": 75, "unit": "%"}, {"measurement": "72 h-cell viability decrease", "setting": "[2]", "value": 25, "unit": "%"}, {"measurement": "72 h-cell viability decrease", "setting": "[3]", "value": 80, "unit": "%"}, {"measurement": "pRb levels", "setting": "[4]", "value": "decreased pRb levels"}, {"measurement": "phosphorylation of pRb at Ser807/811", "setting": "[5]", "value": "decreased phosphorylation"}, {"measurement": "IC50", "setting": "[6]", "value": 2, "unit": "nM"}, {"measurement": "raw data ratio 600 nm/460 nm, Data 1", "setting": "[7]; Conc. 0.0005 μM", "value": 0.07557}, {"measurement": "raw data ratio 600 nm/460 nm, Data 2", "setting": "[7]; Conc. 0.0005 μM", "value": 0.0761}, {"measurement": "raw data ratio 600 nm/460 nm, Data 1", "setting": "[7]; Conc. 0.0015 μM", "value": 0.06908}, {"measurement": "raw data ratio 600 nm/460 nm, Data 2", "setting": "[7]; Conc. 0.0015 μM", "value": 0.06919}, {"measurement": "raw data ratio 600 nm/460 nm, Data 1", "setting": "[7]; Conc. 0.0046 μM", "value": 0.05883}, {"measurement": "raw data ratio 600 nm/460 nm, Data 2", "setting": "[7]; Conc. 0.0046 μM", "value": 0.05984}, {"measurement": "raw data ratio 600 nm/460 nm, Data 1", "setting": "[7]; Conc. 0.0137 μM", "value": 0.04626}, {"measurement": "raw data ratio 600 nm/460 nm, Data 2", "setting": "[7]; Conc. 0.0137 μM", "value": 0.04683}, {"measurement": "raw data ratio 600 nm/460 nm, Data 1", "setting": "[7]; Conc. 0.0412 μM", "value": 0.04036}, {"measurement": "raw data ratio 600 nm/460 nm, Data 2", "setting": "[7]; Conc. 0.0412 μM", "value": 0.04048}, {"measurement": "raw data ratio 600 nm/460 nm, Data 1", "setting": "[7]; Conc. 0.1235 μM", "value": 0.02963}, {"measurement": "raw data ratio 600 nm/460 nm, Data 2", "setting": "[7]; Conc. 0.1235 μM", "value": 0.03005}, {"measurement": "raw data ratio 600 nm/460 nm, Data 1", "setting": "[7]; Conc. 0.3704 μM", "value": 0.02837}, {"measurement": "raw data ratio 600 nm/460 nm, Data 2", "setting": "[7]; Conc. 0.3704 μM", "value": 0.02942}, {"measurement": "raw data ratio 600 nm/460 nm, Data 1", "setting": "[7]; Conc. 1.1111 μM", "value": 0.02836}, {"measurement": "raw data ratio 600 nm/460 nm, Data 2", "setting": "[7]; Conc. 1.1111 μM", "value": 0.02899}, {"measurement": "raw data ratio 600 nm/460 nm, Data 1", "setting": "[7]; Conc. 3.3333 μM", "value": 0.02996}, {"measurement": "raw data ratio 600 nm/460 nm, Data 2", "setting": "[7]; Conc. 3.3333 μM", "value": 0.02908}, {"measurement": "raw data ratio 600 nm/460 nm, Data 1", "setting": "[7]; Conc. 10.0000 μM", "value": 0.02733}, {"measurement": "raw data ratio 600 nm/460 nm, Data 2", "setting": "[7]; Conc. 10.0000 μM", "value": 0.02831}, {"measurement": "Caspase 3/7 activity, compound alone", "setting": "[8]", "value": "increased Caspase 3/7 activity"}, {"measurement": "effect of bafilomycin A1 cotreatment on Caspase 3/7 activity", "setting": "[8]", "value": "enhanced"}, {"measurement": "CETSA", "setting": "[9]", "value": "POS"}, {"measurement": "CETSA", "setting": "[10]", "value": "NEG"}, {"measurement": "B2M mRNA levels", "setting": "[11]", "value": "to a greater extent than Comparator 1 did"}]}]}
